Results as given in patent publication US12202840B2, “Compounds for the treatment or alleviation of disorders associated with Tau aggregates” (AC Immune SA, priority 2018, dated 2025).

Assays:
Format in all cases: in vivo
misfolded Tau (MC1) = target: T1, misfolded Tau (MC1) (Homo sapiens, UniProt P10636, P618L); test: Misfolded Tau by MC1 histology, study of Example 1 and Example 12; conditions: rTg4510 mice, once daily by gavage 12.5 weeks; Example 1 at 7 and 20 mg/kg, Example 12 at 20 mg/kg; vs vehicle treated rTg4510; FIG. 2B
T1 construct: expressing the full-length human Tau carrying the P301L mutation (Tau4R0N-P301L); from tissue; host or cells: brain (cortex) of double transgenic rTg4510 mice
T1 sequence (P10636 1-383 isoform P10636-6 P243L): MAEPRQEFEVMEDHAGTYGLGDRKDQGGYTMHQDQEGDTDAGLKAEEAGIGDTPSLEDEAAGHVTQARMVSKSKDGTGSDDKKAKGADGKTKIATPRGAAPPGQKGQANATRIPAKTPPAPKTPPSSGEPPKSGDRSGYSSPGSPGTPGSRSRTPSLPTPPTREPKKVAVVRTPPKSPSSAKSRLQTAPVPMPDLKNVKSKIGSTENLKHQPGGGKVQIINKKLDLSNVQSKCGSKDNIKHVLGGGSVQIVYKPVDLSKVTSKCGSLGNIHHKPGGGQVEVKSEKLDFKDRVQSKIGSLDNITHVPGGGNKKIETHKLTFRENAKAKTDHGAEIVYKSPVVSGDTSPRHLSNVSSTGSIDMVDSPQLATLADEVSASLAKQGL
Description: (§1) Double transgenic rTg4510 mice are an aggressive Tauopathy model expressing the full-length human Tau carrying the P301L mutation (Tau4R0N-P301L) under the control of the tetracycline-inducible CaMKII promoter (Ramsden et al., J. Neurosci., 2005⋅25(46):10637-10647). Wild-type animals and single transgenic mice expressing only the tetracycline-controlled transactivator (tTA) were used as genotype controls. The study comprised 6 treatment groups (n=20 mice/group) with the following group distribution (see Table 5). Compounds or vehicle control were administered once daily by gavage for 12.5 weeks starting at the age of 5.5 weeks. […]
(§2) After behavioral testing, mice were deeply anesthetized by standard injectable anesthesia and transcardially perfused with cold PBS. […] Sections from 7 mice per group, excluding wild-type animals, were collected from around 10 mediolateral levels starting 0.2 mm lateral from midline, mounted on slides, and used to quantify the cortex size. […] To reduce auto-fluorescence of the tissue, sections were incubated with a solution of 0.1% Sudan Black (Sigma) in 70% ethanol for 15 minutes at room temperature, then washed four times 5 minutes in PBS, and mounted using ProLong Gold Antifade reagent (Invitrogen). Staining was visualized on the Nikon Eclipse Ti microscope, imaged using Nikon DS-Fi2 camera, and quantified using the NIS-Element AR4.13.1 software. […]

CD68 positive microglia = test: CD68 histology (neuroinflammation), study of Example 1 and Example 12; conditions: rTg4510 mice, once daily by gavage 12.5 weeks; Example 1 at 7 and 20 mg/kg, Example 12 at 20 mg/kg; vs vehicle treated rTg4510; FIG. 3
Description: (§3) Double transgenic rTg4510 mice are an aggressive Tauopathy model expressing the full-length human Tau carrying the P301L mutation (Tau4R0N-P301L) under the control of the tetracycline-inducible CaMKII promoter (Ramsden et al., J. Neurosci., 2005⋅25(46):10637-10647). Wild-type animals and single transgenic mice expressing only the tetracycline-controlled transactivator (tTA) were used as genotype controls. The study comprised 6 treatment groups (n=20 mice/group) with the following group distribution (see Table 5). Compounds or vehicle control were administered once daily by gavage for 12.5 weeks starting at the age of 5.5 weeks. The Morris Water Maze (MWM) behavioral test was performed after 12.5 weeks of treatment over 5 consecutive days. During MWM testing daily dosing was continued. Behavioral testing (MWM) was performed only on female mice (around n=11 female/group). Measurements of cortical atrophy and histology for misfolded Tau (MC1) and CD68 were performed on 7 animals/group excluding wild-type animals.
A systematic random set of sections for five sagittal sections per animal (a total of 175 sections) was used for CD68 histological staining. […] Data were analyzed by 1-way ANOVA followed by post-hoc comparisons and shown statistics refers to differences compared to vehicle treated rTg4510 mice.

rTg4510 mice [1] = test: Cortex size (cortical atrophy), study of Example 1 and Example 12; conditions: once daily by gavage 12.5 weeks, Example 1 at 7 and 20 mg/kg, Example 12 at 20 mg/kg, vs vehicle treated rTg4510, FIG. 2A
Description: as §1, §2

rTg4510 mice [2] = test: Morris Water Maze behavioral test, study of Example 1 and Example 12; conditions: once daily by gavage 12.5 weeks, Example 1 at 7 and 20 mg/kg, Example 12 at 20 mg/kg, vs vehicle treated rTg4510, FIG. 1
Description: as §3, with “Measurements of cortical atrophy and histology for misfolded Tau (MC1) and CD68 were performed on 7 animals/group excluding wild-type animals.” left out
The MWM was performed in a circular tank, measuring 48″ in diameter. […] Trials were video recorded and analyzed by a computer program (WaterMaze; Actimetrics, Wilmette, Ill.). […] Percent time spent in each quadrant (target, left and right adjacent, and opposite) were calculated for probe trials. […] Data were analyzed by 2-way ANOVA followed by post-hoc comparisons and shown statistics refers to differences compared to vehicle treated rTg4510 mice.

CC(C)N1CCc2c(c3ccc(Nc4ccc5nc(N6CCOCC6)sc5c4)nc3n2C)C1 [Example 1]
misfolded Tau (MC1 histology) (misfolded Tau (MC1)): dose-dependent decrease | CD68 positive microglia (CD68 positive microglia): decrease | cortex size (rTg4510 mice [1]): dose-dependent increase | percentage of time spent in the target quadrant (MWM probe trial) (rTg4510 mice [2]): dose-dependent increase

CN(C)[C@@H]1CCc2c(c3ccc(Nc4ccc5nc(N6CCOCC6)sc5c4)nc3n2C)C1 [Example 12]
misfolded Tau (MC1 histology) (misfolded Tau (MC1)): significant decrease | CD68 positive microglia (CD68 positive microglia): significant decrease | cortex size (rTg4510 mice [1]): significant increase | percentage of time spent in the target quadrant (MWM probe trial) (rTg4510 mice [2]): significant increase
